Reference: ChEMBL document CHEMBL5725286, “Polyfluorinated compounds acting as bruton tyrosine kinase inhibitors” (2017)
pIC50: −log10 of the molar value.

Biological target: Tyrosine-protein kinase BTK (Homo sapiens, UniProt Q06187)
Experiment: HTRF Assay: The enzyme reaction mixture of BTK wild type standard HTRF assay contained 1 nM BTK wild type, 1 μM biotin-TK1 peptide, and 30 μM ATP in a buffer. The enzyme reaction were carried out at room temperature for 60 minutes. 5 μl of 0.2 M EDTA were added to quench the reaction and then […] were added at final concentrations of 2 nM antibody and 62.5 nM XL665. The plates were incubated at room temperature for 60 minutes and then read in the Envision plate reader.

Chain of Tyrosine-protein kinase BTK (Q06187 whole entry): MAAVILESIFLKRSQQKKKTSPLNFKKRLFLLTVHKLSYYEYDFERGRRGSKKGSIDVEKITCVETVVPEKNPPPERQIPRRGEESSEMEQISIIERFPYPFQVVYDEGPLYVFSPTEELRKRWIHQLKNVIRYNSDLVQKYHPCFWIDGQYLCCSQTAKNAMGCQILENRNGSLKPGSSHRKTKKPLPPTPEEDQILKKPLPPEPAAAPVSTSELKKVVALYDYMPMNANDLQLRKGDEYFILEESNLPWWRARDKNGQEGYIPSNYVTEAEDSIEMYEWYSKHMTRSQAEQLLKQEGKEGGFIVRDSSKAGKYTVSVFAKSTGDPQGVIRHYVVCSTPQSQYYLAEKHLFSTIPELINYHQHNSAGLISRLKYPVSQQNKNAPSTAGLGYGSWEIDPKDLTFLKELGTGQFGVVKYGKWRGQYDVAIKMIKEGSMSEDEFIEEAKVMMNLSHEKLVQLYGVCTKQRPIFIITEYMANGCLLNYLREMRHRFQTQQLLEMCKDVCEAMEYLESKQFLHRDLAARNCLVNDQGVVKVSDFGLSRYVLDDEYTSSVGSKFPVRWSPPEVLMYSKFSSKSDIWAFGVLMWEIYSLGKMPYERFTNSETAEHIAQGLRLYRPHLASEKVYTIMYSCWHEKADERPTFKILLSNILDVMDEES

Structure (SMILES): Nc1ncnc2c1c(-c1ccc(Oc3c(F)c(F)cc(F)c3F)cc1F)nn2C1CCC(NC(=O)CSSCC(=O)NC2CCC(n3nc(-c4ccc(Oc5c(F)c(F)cc(F)c5F)cc4F)c4c(N)ncnc43)CC2)CC1 (stereo unspecified)
- pIC50: 7.66
